Tests used:
[1] = molecular target: T1, EGFR tyrosine kinase activity in A549 cells (Homo sapiens, UniProt P00533); experiment: FRET efficiency in A549 cells expressing Pickles_2.34NES; assay type: cell-based
T1 construct: pFX-Pickles_2.34NES was introduced into A549 cells and H1299 cells; endogenous in cells; host or cells: A549
Protocol: (§1) Fluorescence images of cells were acquired using an IX81 research-grade inverted microscope (Olympus) equipped with a stage incubator (LCI), a motorized XY-stage (Chuo Precision Industrial), and a CoolSNAP Myo cooled charge-coupled device (CCD) camera (Nippon Roper) under the control of MetaMorph software (Molecular Devices Japan). […] White light from a SOLA light engine (Lumencore) was attenuated by a 20% neutral density filter and used as excitation light after interference by each filter. Images were captured using a 60× oil immersion objective lens (numerical aperture 1.40) (4×4 binning, fluorescence images: exposure time 200 msec, differential interference contrast images: exposure time 20 msec).
(§2) After 24 hours, the medium was changed to phenol red-free MEM-F12 medium, and the cells were serum-starved for 4 hours. Time-lapse fluorescence imaging was then initiated, with FRET, CFP, and DIC images acquired every 30 seconds. Cells were stimulated by adding EGF to a final concentration of 50 ng/ml at 10 minutes after starting imaging, and imaging was continued for another 50 minutes. Following background subtraction, FRET efficiency was calculated as the ratio of cellular fluorescence intensity (FRET/CFP) from each channel at each time point.

[2] = tested on: EGFR tyrosine kinase activity in H1299 cells; experiment: FRET efficiency in H1299 cells expressing Pickles_2.34NES
Protocol: as §1, §2

[3] = molecular target: EGFR tyrosine kinase activity in HCC827 cells (Homo sapiens, UniProt P00533, DEL746-750); experiment: FRET efficiency in HCC827 cells expressing Pickles biosensor
Protocol: as §1, §2

[4] = tested on: EGFR tyrosine kinase activity; experiment: FRET efficiency (FRET/CFP) time-lapse imaging in Cos-1 cells expressing biosensor; assay type: cell-based, African green monkey
Protocol: as §1, §2

change in FRET efficiency upon EGF stimulation [1] | response of FRET efficiency to EGF stimulation compared to Pickles_2.34 [3] | Substance | increase in FRET efficiency upon EGF stimulation [2] | change in FRET efficiency with HGF stimulation ([4]; Cos-1 cells expressing Pickles, HGF instead of EGF, same amount) | increase in FRET efficiency upon EGF stimulation ([4]; Cos-1 cells expressing the biosensor, EGF 50 ng/ml) [%]
increased significantly | higher sensitivity | Pickles_2.34NES: SEQ ID NO: 7: Pickles_2.34 with the NES from protein kinase A inhibitor added to its N-terminus | slight |  | 
 |  | Pickles_2.34: SEQ ID NO: 6: m1Venus, CrkL residues 1-222 with D94A, cp173-ECFP FRET biosensor |  | did not change | 77.7

From patent US20260092919A1, “REAGENT FOR MEASURING TYROSINE KINASE ACTIVITY, AND USE THEREOF” (HILO CO. LTD., priority 2022, published 2026)
